Source: patent US12539292B2, “BRM targeting compounds and associated methods of use” (Arvinas Operations, Inc., priority 2018, dated 2026)
Read-outs that look alike come from different tables or passages of the source. Each block holds one compound with its values, some of them ahead of it.

Target: T1, BRM (Homo sapiens, UniProt P51531)
T1 construct: In-Cell Western Screen of BRM Degradation in SW1573 Cells; endogenous in cells; host or cells: SW1573
Assay: In-cell Western screen of BRM degradation in SW1573 cells (Dmax and DC50)
Assay type: cell-based
How it was run: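 SW1573, overnight cpd exposure (18-20 h), 0.1% DMSO final. PFA fix, 0.5% Triton permeabilization, block; IR secondaries at 800/680 nm. Odyssey read → Dmax, DC50.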

[1] = BRM degradation, SW1573 cells, read-out: DC50
[2] = BRM degradation, SW1573 cells, tested at the top concentration of between 0.3 and 10 μM, read-out: Dmax (%) (% degraded)
[3] = SW1573, % degraded, when tested at the top concentration of between 0.3 and 10 μM, read-out: BRM Dmax (%)
[4] = target protein degradation, read-out: BRM DC50
[5] = BRM degradation, SW1573 cells, Table 2D, read-out: **Dmax (%) (% degraded)
[6] = BRM degradation, SW1573 cells, Table 2D, read-out: *DC50

T1 sequence (P51531 whole entry): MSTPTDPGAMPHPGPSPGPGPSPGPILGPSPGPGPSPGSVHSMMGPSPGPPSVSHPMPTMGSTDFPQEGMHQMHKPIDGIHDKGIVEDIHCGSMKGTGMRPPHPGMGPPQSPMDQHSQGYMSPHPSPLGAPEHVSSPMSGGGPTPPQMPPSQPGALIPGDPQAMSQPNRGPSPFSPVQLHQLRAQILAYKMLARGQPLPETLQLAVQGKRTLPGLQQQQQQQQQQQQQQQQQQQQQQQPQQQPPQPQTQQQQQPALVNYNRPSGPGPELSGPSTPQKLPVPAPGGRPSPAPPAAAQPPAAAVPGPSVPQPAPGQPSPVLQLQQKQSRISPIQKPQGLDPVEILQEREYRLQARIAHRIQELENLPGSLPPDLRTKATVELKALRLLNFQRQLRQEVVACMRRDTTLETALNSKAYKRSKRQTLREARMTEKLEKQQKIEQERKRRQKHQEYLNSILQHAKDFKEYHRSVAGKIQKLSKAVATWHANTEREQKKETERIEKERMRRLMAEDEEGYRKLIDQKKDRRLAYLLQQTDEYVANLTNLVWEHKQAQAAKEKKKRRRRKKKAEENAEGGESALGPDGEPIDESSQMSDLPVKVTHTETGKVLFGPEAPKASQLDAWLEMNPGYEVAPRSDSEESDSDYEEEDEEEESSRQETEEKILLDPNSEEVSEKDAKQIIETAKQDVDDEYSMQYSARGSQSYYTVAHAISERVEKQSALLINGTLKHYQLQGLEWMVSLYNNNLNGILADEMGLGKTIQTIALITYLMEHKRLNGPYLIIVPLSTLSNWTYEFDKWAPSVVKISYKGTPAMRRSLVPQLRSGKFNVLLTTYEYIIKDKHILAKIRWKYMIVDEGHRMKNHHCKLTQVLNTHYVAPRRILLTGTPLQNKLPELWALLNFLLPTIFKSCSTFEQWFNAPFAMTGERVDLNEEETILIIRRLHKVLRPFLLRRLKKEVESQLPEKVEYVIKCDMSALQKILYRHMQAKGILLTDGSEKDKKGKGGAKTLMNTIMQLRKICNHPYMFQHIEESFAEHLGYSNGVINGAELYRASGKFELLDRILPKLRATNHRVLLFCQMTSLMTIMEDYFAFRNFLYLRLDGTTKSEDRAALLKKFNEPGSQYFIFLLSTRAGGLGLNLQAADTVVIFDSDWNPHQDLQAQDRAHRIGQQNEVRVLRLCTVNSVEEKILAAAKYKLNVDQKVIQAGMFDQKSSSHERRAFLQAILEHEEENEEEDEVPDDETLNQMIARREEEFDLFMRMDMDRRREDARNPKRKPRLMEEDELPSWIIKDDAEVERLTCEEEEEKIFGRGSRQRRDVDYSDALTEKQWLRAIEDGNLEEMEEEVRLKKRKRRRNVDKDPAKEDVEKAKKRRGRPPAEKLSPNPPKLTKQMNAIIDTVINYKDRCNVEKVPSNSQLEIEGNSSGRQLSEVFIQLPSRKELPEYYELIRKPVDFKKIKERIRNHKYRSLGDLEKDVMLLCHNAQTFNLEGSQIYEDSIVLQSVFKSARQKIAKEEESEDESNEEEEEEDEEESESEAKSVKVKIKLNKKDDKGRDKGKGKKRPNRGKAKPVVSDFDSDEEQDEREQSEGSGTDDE

Structure (SMILES): Cc1ncsc1-c1ccc([C@H](C)NC(=O)[C@@H]2C[C@@H](O)CN2C(=O)[C@H](c2cc(OCCN3CCC(O[C@H]4C[C@H](Nc5cc(N6C7CCC6CN(c6cc(-c8ccccc8O)nnc6N)C7)ccn5)C4)CC3)no2)C(C)C)cc1 [compound 492, (2S,4R)-1-((2S)-2-(3-(2-(4-((1r,3S)-3-((4-(3-(3-amino-6-(2-hydroxyphenyl)pyridazin-4-yl)-3,8-diazabicyclo[3.2.1]octan-8-yl)pyridin-2-yl)amino)cyclobutoxy)piperidin-1-yl)ethoxy)isoxazol-5-yl)-3-methylbutanoyl)-4-hydroxy-N-((S)-1-(4-(4-methylthiazol-5-yl)phenyl)ethyl)pyrrolidine-2-carboxamide]
- DC50 (BRM degradation, read-out: BRM DC50): > 30 nM

- DC50 (degradation of BRM, read-out: BRM DC50): > 30 nM
Structure (SMILES): Cc1ncsc1-c1ccc([C@H](C)NC(=O)[C@@H]2C[C@@H](O)CN2C(=O)[C@@H](c2cc(OCCN3CCC(CN4CC(Oc5cc(N6C7CCC6CN(c6cc(-c8ccccc8O)nnc6N)C7)ccn5)C4)CC3)no2)C(C)C)cc1 [compound 406, (2S,4R)-1-((2R)-2-(3-(2-(4-((3-((4-(3-(3-amino-6-(2-hydroxyphenyl)pyridazin-4-yl)-3,8-diazabicyclo[3.2.1]octan-8-yl)pyridin-2-yl)oxy)azetidin-1-yl)methyl)piperidin-1-yl)ethoxy)isoxazol-5-yl)-3-methylbutanoyl)-4-hydroxy-N-((S)-1-(4-(4-methylthiazol-5-yl)phenyl)ethyl)pyrrolidine-2-carboxamide]

Structure (SMILES): Cc1ncsc1-c1ccc([C@H](C)NC(=O)[C@@H]2C[C@@H](O)CN2C(=O)[C@@H](c2cc(OCCC3CCN(C[C@H]4C[C@H](Oc5cc(N6C7CCC6CN(c6cc(-c8ccccc8O)nnc6N)C7)ccn5)C4)CC3)no2)C(C)C)cn1 [compound 288, (2S,4R)-1-((2R)-2-(3-(2-(1-(((1r,3R)-3-((4-(3-(3-amino-6-(2-hydroxyphenyl)pyridazin-4-yl)-3,8-diazabicyclo[3.2.1]octan-8-yl)pyridin-2-yl)oxy)cyclobutyl)methyl)piperidin-4-yl)ethoxy)isoxazol-5-yl)-3-methylbutanoyl)-4-hydroxy-N-((S)-1-(6-(4-methylthiazol-5-yl)pyridin-3-yl)ethyl)pyrrolidine-2-carboxamide]
- DC50 [1]: < 2.5 nM
- Dmax [2]: > 75%

- DC50 [1]: < 2.5 nM
- Dmax (BRM degradation, SW1573 cells, read-out: Dmax (% degraded)): > 75%
Structure (SMILES): Cc1ncsc1-c1ccc([C@H](C)NC(=O)[C@@H]2C[C@@H](O)CN2C(=O)[C@H](c2cc(OCCC3CCN(C[C@H]4C[C@H](C#CC(C)n5cc(-c6cc(-c7ccccc7O)nnc6N)cn5)C4)CC3)no2)C(C)C)cc1 (stereo partly drawn) [compound 633, (2S,4R)-1-((2R)-2-(3-(2-(1-(((1r,3R)-3-(3-(4-(3-amino-6-(2-hydroxyphenyl)pyridazin-4-yl)-1H-pyrazol-1-yl)but-1-yn-1-yl)cyclobutyl)methyl)piperidin-4-yl)ethoxy)isoxazol-5-yl)-3-methylbutanoyl)-4-hydroxy-N-((S)-1-(4-(4-methylthiazol-5-yl)phenyl)ethyl)pyrrolidine-2-carboxamide]

Structure (SMILES): Cc1ncsc1-c1ccc([C@H](C)NC(=O)[C@@H]2C[C@@H](O)CN2C(=O)[C@@H](c2cc(OCC(F)(F)CN3CCC(O[C@H]4C[C@H](Oc5cc(N6C7CCC6CN(c6cc(-c8ccccc8O)nnc6N)C7)ccn5)C4)CC3)no2)C(C)C)cc1 [compound 484, (2S,4R)-1-((2R)-2-(3-(3-(4-((1r,3R)-3-((4-(3-(3-amino-6-(2-hydroxyphenyl)pyridazin-4-yl)-3,8-diazabicyclo[3.2.1]octan-8-yl)pyridin-2-yl)oxy)cyclobutoxy)piperidin-1-yl)-2,2-difluoropropoxy)isoxazol-5-yl)-3-methylbutanoyl)-4-hydroxy-N-((S)-1-(4-(4-methylthiazol-5-yl)phenyl)ethyl)pyrrolidine-2-carboxamide]
- Dmax [3]: > 75%
- DC50 [4]: < 2.5 nM

Structure (SMILES): Cc1cnn(C)c1-c1ccc([C@H](C)NC(=O)[C@@H]2C[C@@H](O)CN2C(=O)[C@H](c2cc(OCCN3CCC(O[C@H]4C[C@H](Oc5cc(N6C7CCC6CN(c6cc(-c8ccccc8O)nnc6N)C7)ccn5)C4)CC3)no2)C(C)C)cc1 [compound 294, (2S,4R)-1-((2S)-2-(3-(2-(4-((1r,3S)-3-((4-(3-(3-amino-6-(2-hydroxyphenyl)pyridazin-4-yl)-3,8-diazabicyclo[3.2.1]octan-8-yl)pyridin-2-yl)oxy)cyclobutoxy)piperidin-1-yl)ethoxy)isoxazol-5-yl)-3-methylbutanoyl)-N-((S)-1-(4-(1,4-dimethyl-1H-pyrazol-5-yl)phenyl)ethyl)-4-hydroxypyrrolidine-2-carboxamide]
- DC50 [1]: 2.5 to 10 nM
- Dmax [2]: > 75%

Structure (SMILES): Cc1ncsc1-c1ccc([C@H](C)NC(=O)[C@@H]2C[C@@H](O)CN2C(=O)[C@@H](c2cc(OCC[C@@H]3CCN(C[C@H]4C[C@H](Oc5cc(N6C7CCC6CN(c6cc(-c8ccccc8O)nnc6N)C7)ccn5)C4)[C@@H](C)C3)no2)C(C)C)cc1 (racemic) [compound 582, (2S,4R)-1-((2R)-2-(3-(2-((2S,4R)-1-(((1r,3S)-3-((4-(3-(3-amino-6-(2-hydroxyphenyl)pyridazin-4-yl)-3,8-diazabicyclo[3.2.1]octan-8-yl)pyridin-2-yl)oxy)cyclobutyl)methyl)-2-methylpiperidin-4-yl)ethoxy)isoxazol-5-yl)-3-methylbutanoyl)-4-hydroxy-N-((S)-1-(4-(4-methylthiazol-5-yl)phenyl)ethyl)pyrrolidine-2-carboxamide]
- Dmax [5]: > 75%
- DC50 [6]: < 2.5 nM

- DC50 [1]: > 30 nM
Structure (SMILES): Cc1ncsc1-c1ccc([C@H](C)NC(=O)[C@@H]2C[C@@H](O)CN2C(=O)[C@H](c2cc(OCCN3CCN(CCC#CCn4cc(-c5cc(-c6ccccc6O)nnc5N)cn4)CC3)no2)C(C)C)cn1 [compound 197, (2S,4R)-1-((S)-2-(3-(2-(4-(5-(4-(3-amino-6-(2-hydroxyphenyl)pyridazin-4-yl)-1H-pyrazol-1-yl)pent-3-yn-1-yl)piperazin-1-yl)ethoxy)isoxazol-5-yl)-3-methylbutanoyl)-4-hydroxy-N-((S)-1-(6-(4-methylthiazol-5-yl)pyridin-3-yl)ethyl)pyrrolidine-2-carboxamide]

Structure (SMILES): Cc1ncsc1-c1ccc([C@H](C)NC(=O)[C@@H]2C[C@@H](O)CN2C(=O)[C@H](c2cc(OC[C@@H]3C[C@H]3c3ccc(O[C@H]4C[C@H](Oc5cc(N6C7CCC6CN(c6cc(-c8ccccc8O)nnc6N)C7)ccn5)C4)cn3)no2)C(C)C)cn1 [compound 479, (2S,4R)-1-((2S)-2-(3-(((1R,2R)-2-(5-((1r,3R)-3-((4-(3-(3-amino-6-(2-hydroxyphenyl)pyridazin-4-yl)-3,8-diazabicyclo[3.2.1]octan-8-yl)pyridin-2-yl)oxy)cyclobutoxy)pyridin-2-yl)cyclopropyl)methoxy)isoxazol-5-yl)-3-methylbutanoyl)-4-hydroxy-N-((S)-1-(6-(4-methylthiazol-5-yl)pyridin-3-yl)ethyl)pyrrolidine-2-carboxamide]
- DC50 [4]: > 30 nM

Structure (SMILES): Cc1ncsc1-c1ccc([C@H](C)NC(=O)[C@@H]2C[C@@H](O)CN2C(=O)[C@@H](c2cc(OCCC3CCN(C[C@H]4C[C@H](Oc5cc(N6C7CCC6CN(c6cc(-c8ccccc8O)nnc6N)C7)ccn5)C4)CC3)no2)C(C)C)c(F)c1F [compound 588, (2S,4R)-1-((2R)-2-(3-(2-(1-(((1r,3R)-3-((4-(3-(3-amino-6-(2-hydroxyphenyl)pyridazin-4-yl)-3,8-diazabicyclo[3.2.1]octan-8-yl)pyridin-2-yl)oxy)cyclobutyl)methyl)piperidin-4-yl)ethoxy)isoxazol-5-yl)-3-methylbutanoyl)-N-((S)-1-(2,3-difluoro-4-(4-methylthiazol-5-yl)phenyl)ethyl)-4-hydroxypyrrolidine-2-carboxamide]
- Dmax [5]: > 75%
- DC50 [6]: < 2.5 nM

- Dmax [3]: > 75%
- DC50 [4]: 10 to 30 nM
Structure (SMILES): Cc1ncsc1-c1ccc([C@H](C)NC(=O)[C@@H]2C[C@@H](O)CN2C(=O)[C@@H](c2cc(OCCC3CCN(C(=O)[C@H]4C[C@@H](CN5CCC([C@H](C)n6cc(-c7cc(-c8ccccc8O)nnc7N)cn6)CC5)C4)CC3)no2)C(C)C)cc1 [compound 450, (2S,4R)-1-((R)-2-(3-(2-(1-((1R,3S)-3-((4-((S)-1-(4-(3-amino-6-(2-hydroxyphenyl)pyridazin-4-yl)-1H-pyrazol-1-yl)ethyl)piperidin-1-yl)methyl)cyclobutane-1-carbonyl)piperidin-4-yl)ethoxy)isoxazol-5-yl)-3-methylbutanoyl)-4-hydroxy-N-((S)-1-(4-(4-methylthiazol-5-yl)phenyl)ethyl)pyrrolidine-2-carboxamide]

Structure (SMILES): Cc1ncsc1-c1ccc([C@@H](NC(=O)[C@@H]2C[C@@H](O)CN2C(=O)[C@@H](c2cc(OCCN3CCC(O[C@H]4C[C@H](Oc5cc(N6C7CCC6CN(c6cc(-c8ccccc8O)nnc6N)C7)ccn5)C4)CC3)no2)C(C)C)C(F)F)cn1 [compound 244, (2S,4R)-1-((2R)-2-(3-(2-(4-((1r,3R)-3-((4-(3-(3-amino-6-(2-hydroxyphenyl)pyridazin-4-yl)-3,8-diazabicyclo[3.2.1]octan-8-yl)pyridin-2-yl)oxy)cyclobutoxy)piperidin-1-yl)ethoxy)isoxazol-5-yl)-3-methylbutanoyl)-N-((R)-2,2-difluoro-1-(6-(4-methylthiazol-5-yl)pyridin-3-yl)ethyl)-4-hydroxypyrrolidine-2-carboxamide]
- DC50 [1]: < 2.5 nM
- Dmax [2]: > 75%
